Test results published in PMC4187030, “Effect of cyclodextrin complexation on phenylpropanoids’ solubility and antioxidant activity” (Beilstein Journal of Organic Chemistry, 2014).
In brackets after ≈: the same amount, converted by molar mass. Like-named read-outs stand apart in the source and are kept apart here.

How the values were obtained:
[1] = Phase solubility studies, CRYSMEB
Protocol: (§1) Phase solubility studies were carried out according to the method described by Higuchi and Connors. Excess amount of PP was added to 1 mL of CD solution at different concentrations ranging from 0 to 10 mM. The mixtures were shaken at 25 °C for 24 h then filtered through a 0.45 μm membrane filter. The concentration of PP in the filtrate was determined spectrophotometrically at the maximum wavelength corresponding to each PP. Phase solubility diagrams were obtained by plotting the solubility of PP as a function of CD concentration. Kf value of CD/PP inclusion complex was calculated from the linear segment of the phase–solubility diagrams using the following equation: […]
(§2) where S0 is the intrinsic solubility of PP in the absence of CD and the Slope is the slope of the phase–solubility profile. The solubilizing potential of CD was evaluated by the complexation efficiency (CE) parameter. CE equal the complex to free CD concentration ratio and was calculated from the slope of the phase solubility diagram: […]
(§3) where [CD/PP] is the concentration of dissolved inclusion complex and [CD] is the concentration of dissolved free CD. The CE can be used to calculate the PP:CD ratio as follows:
(§4) The correlation between the CE and the molecular weight of CD or guest allowed the determination of the increase in formulation bulk which can be calculated using the following equation: […]
(§5) where MWCD and MWPP are the molecular weight values of CD and PP, respectively.

[2] = HP-β-CD, cited from earlier work
[3] = Formation constants (Kf) by UV–visible spectral displacement method, α-CD; assay type: physicochemical; conditions: UV–visible spectral displacement with MO (MO itself by direct titration), SD <10%
Protocol: (§6) Formation constant (Kf) values were calculated using a UV–visible spectral displacement method. This method implies first the characterization of the inclusion complexes between CDs and the competitor (methyl orange, MO). The results are summarized in Table 1 in comparison with values from the literature.
(§7) The UV–visible competition method with methyl orange (MO) as competitor was carried out according to the method described by Landy et al.. In order to calculate CD/PP Kf values, CD/MO inclusion complexes were firstly characterized by a direct titration method. Then, a spectral displacement method was applied by adding PP to a solution containing constant concentration of MO and CD. The addition of PP implied an absorbance increment leading to the calculation of CD/PP Kf values. Spectra were recorded between 520–530 nm for a MO concentration fixed at 0.1 mM. This wavelength range corresponds to the optimal spectral variation between the absorbance of free and complexed forms of MO. All Kf values were calculated by an algorithmic treatment applied to the first derivatives of UV spectra in order to avoid any spectral influence of diffraction phenomena. Absorption studies were performed using a UV–visible dual-beam spectrophotometer (Perkin Elmer Lambda 2S) with a 1 cm thick quartz cuvette.

[4] = CRYSMEB, cited from earlier work
[5] = Phase solubility studies, β-CD
Protocol: as §1, §2, §3, §4, §5

[6] = set-up: method as in earlier work; conditions: cited from earlier work
[7] = DPPH radical scavenging activity; conditions: for Change of DPPH radical scavenging activity upon complexation with CDs: PP in 10 mM CD solution vs water; for Kinetic behavior of reaction with DPPH•: PP with ethanolic DPPH• solution; for DPPH radical scavenging (antioxidant) activity of PP alone: absence of CD, 1 h (3, 4, 6, 7) or 15 h (1, 2, 5), 25 °C
Protocol: The 2,2-diphenyl-1-picrylhydrazyl (DPPH) radical scavenging activity of PP and their inclusion complexes was measured using the method described by Brand-Williams, Cuvelier, and Berset (1995) with some modifications. 1 mg of PP was dissolved in 50 mL of water, or 10 mM CD solution. 2 mL aliquot of the solution was vigorously mixed with 2 mL of ethanolic DPPH^• solution (0.1 mM). […]. Blank sample was prepared by mixing 2 mL of distilled water with 2 mL of DPPH^• solution. The scavenging activity was calculated using the following equation: […]
where As and A0 are the absorbance of sample and blank sample, respectively.

[8] = RAMEB, cited from earlier work
[9] = Phase solubility studies, HP-β-CD
Protocol: as §1, §2, §3, §4, §5

[10] = Intrinsic solubility (S0) of PP in water; assay type: physicochemical; conditions: thermodynamic from solid, absence of CD, 25 °C
Protocol: as §1, §2

[11] = Phase solubility studies, RAMEB; conditions: for Increase in formulation bulk / CE (complexation efficiency) / Kf: RAMEB; for Increase in formulation bulk: from CE and molecular weights; for CE (complexation efficiency): from slope of phase solubility diagram; for Kf: from slope of phase solubility diagram and S0, 25 °C; for St/S0 (solubility enhancement ratio): guest solubility in 10 mM RAMEB solution vs water
Protocol: as §1, §2, §3, §4, §5

[12] = Formation constants (Kf) by UV–visible spectral displacement method, HP-β-CD; assay type: physicochemical; conditions: UV–visible spectral displacement with MO (MO itself by direct titration), SD <10%
Protocol: as §6, §7

[13] = β-CD, cited from earlier work
[14] = α-CD; ref 24; cited from earlier work
[15] = Protocol: as §1, §2, §3, §4, §5
[16] = Formation constants (Kf) by UV–visible spectral displacement method, β-CD; assay type: physicochemical; conditions: UV–visible spectral displacement with MO (MO itself by direct titration), SD <10%
Protocol: as §6, §7

[17] = Formation constants (Kf) by UV–visible spectral displacement method, CRYSMEB; assay type: physicochemical; conditions: UV–visible spectral displacement with MO (MO itself by direct titration), SD <10%
Protocol: as §6, §7

[18] = Formation constants (Kf) by UV–visible spectral displacement method, RAMEB; assay type: physicochemical; conditions: UV–visible spectral displacement with MO (MO itself by direct titration), SD <10%
Protocol: as §6, §7

C=CCc1ccc(O)c(OC)c1 [Eugenol (4), eugenol]
CE (complexation efficiency) [1]: 2.78 | Increase in formulation bulk [1]: 10 | Kf [1]: 440 M⁻¹ | Molar ratio (PP:CD) [1]: 1:1.36 | Formation constant (Kf) ([2]; ref 21): 445 M⁻¹ | Formation constant (Kf) ([2]; ref 24): 462 M⁻¹ | Formation constant (Kf) [3]: 350 M⁻¹ | Formation constant (Kf) ([4]; ref 21): 401 M⁻¹ | Formation constant (Kf) ([4]; ref 24): 454 M⁻¹ | CE (complexation efficiency) [5]: 3.25 | Increase in formulation bulk [5]: 9 | Kf [5]: 513 M⁻¹ | Molar ratio (PP:CD) [5]: 1:1.31 | log P [6]: 2.100 | Change of DPPH radical scavenging activity upon complexation with CDs [7]: kept unchanged | Kinetic behavior of reaction with DPPH• [7]: reacted rapidly | DPPH radical scavenging (antioxidant) activity of PP alone [7]: higher antioxidant activity | Formation constant (Kf) ([8]; ref 21): 521 M⁻¹ | Formation constant (Kf) ([8]; ref 24): 568 M⁻¹ | CE (complexation efficiency) [9]: 2.81 | Increase in formulation bulk [9]: 12 | Kf [9]: 445 M⁻¹ | Molar ratio (PP:CD) [9]: 1:1.36 | solubility at 24 h [10]: 1040 µg/mL (≈ 6.32 mM) | Increase in formulation bulk [11]: 11 | CE (complexation efficiency) [11]: 3.48 | Kf [11]: 550 M⁻¹ | St/S0 (solubility enhancement ratio) [11]: 2.2 | Formation constant (Kf) [12]: 436 M⁻¹ | Formation constant (Kf) ([13]; ref 21): 322 M⁻¹ | Formation constant (Kf) ([13]; ref 24): 264 M⁻¹ | Formation constant (Kf) ([13]; ref 25): 357 M⁻¹ | Formation constant (Kf) [14]: 94 M⁻¹ | CE (complexation efficiency) [15]: 1.56 | Increase in formulation bulk [15]: 10 | Kf [15]: 246 M⁻¹ | Molar ratio (PP:CD) [15]: 1:1.64

O=C(O)/C=C/c1ccc(O)cc1 [p-Coumaric acid (5), p-coumaric acid]
Increase in formulation bulk ([1]; CRYSMEB, from CE and molecular weights): 11 | CE (complexation efficiency) ([1]; CRYSMEB, from slope of phase solubility diagram): 1.89 | Kf ([1]; CRYSMEB, from slope of phase solubility diagram and S0, 25 °C): 900 M⁻¹ | St/S0 (solubility enhancement ratio) ([1]; guest solubility in 10 mM CRYSMEB solution vs water): 4 | Formation constant (Kf) [3]: 1816 M⁻¹ | Formation constant (Kf) [16]: 338 M⁻¹ | St/S0 (solubility enhancement ratio) ([5]; guest solubility in 10 mM β-CD solution vs water): 2.8 | Increase in formulation bulk ([5]; β-CD, from CE and molecular weights): 18 | CE (complexation efficiency) ([5]; β-CD, from slope of phase solubility diagram): 0.64 | Kf ([5]; β-CD, from slope of phase solubility diagram and S0, 25 °C (linear portion for 1 and 2)): 306 M⁻¹ | log P [6]: 1.43 | Change of DPPH radical scavenging activity upon complexation with CDs [7]: kept unchanged | Kinetic behavior of reaction with DPPH• [7]: slow kinetic behavior | DPPH radical scavenging (antioxidant) activity of PP alone [7]: higher antioxidant activity | Formation constant (Kf) [17]: 668 M⁻¹ | Increase in formulation bulk ([9]; HP-β-CD, from CE and molecular weights): 13 | CE (complexation efficiency) ([9]; HP-β-CD, from slope of phase solubility diagram): 2.30 | Kf ([9]; HP-β-CD, from slope of phase solubility diagram and S0, 25 °C): 1099 M⁻¹ | St/S0 (solubility enhancement ratio) ([9]; guest solubility in 10 mM HP-β-CD solution vs water): 4.4 | solubility at 24 h [10]: 344 µg/mL (≈ 2.1 mM) | Increase in formulation bulk [11]: 11 | CE (complexation efficiency) [11]: 2.57 | Kf [11]: 1228 M⁻¹ | St/S0 (solubility enhancement ratio) [11]: 4.4 | Formation constant (Kf) [12]: 787 M⁻¹ | CE (complexation efficiency) [15]: 4.17 | Increase in formulation bulk [15]: 7 | Kf [15]: 1988 M⁻¹ | Molar ratio (PP:CD) [15]: 1:1.24 | Formation constant (Kf) [18]: 1030 M⁻¹
